Reference: patent US20240261274A1, “TREATMENT OF MYC-DRIVEN CANCERS WITH GSPT1 DEGRADERS” (MONTE ROSA THERAPEUTICS, INC., priority 2021, published 2024)

Tests used:
[1] = test system: NCI-H1155 xenograft (human non small cell lung cancer); test: NCI-H1155 xenograft efficacy study (compound 210); format: in vivo, BALB/c nude mice
Protocol: For the NCI-H1155 xenograft study, cells (human non small cell lung cancer, ATCC CRL-5818) were maintained in vitro as suspension culture in ATCC-formulated DMEM:F12 Medium supplemented as recommended by the provider and kept at 37° C. in an atmosphere of 5% CO2 in air. Cells (0.5 million) were resuspended in 0.2 mL of PBS with Matrigel (50:50) and inoculated into female BALB/c nude mice, 6-8 weeks old, and allowed to grow to 150 mm^3 in size. Mice were dosed orally with either vehicle or compound 210 at 1 or 3 mg per kilogram daily (filled squares and filled triangles, respectively) or 6 mg per kilogram for 5 continuous days followed by 9 days treatment holidays (5 On-9 off) (filled inverted triangles). Compound formulations were prepared fresh daily in 5% vDMSO/95% (30% w/v HP-β-CD in water). Gemcitabine dosed at 40 mg per kilogram, IP, Q4D×5 was used as a positive control (filled rhombi). For this study, mice were dosed for 21 days with tumor volumes measured every 3 days.

GSPT1 = GSPT1 (Homo sapiens, UniProt P15170+Q96SW2); test: GSPT1 degradation in tumors of mice treated with compound 210; format: in vivo; design: from tissue; host or cells: NCI-H1155 subcutaneous xenograft tumours from BALB/c nude mice; settings: 1 mg/kg, 3 mg/kg, 6 mg/kg; compared to vehicle control
NSCLC cell lines = test: Viability assay, 72 hr CellTiter Glo, NSCLC cell line panel (Compound 345); format: cell-based; settings: panel of NSCLC cell lines
Protocol: EC50 scores for Compound 345 were measured in a panel of NSCLC cell lines. Each cell line was scored for NSCLC biomarkers and EC50 values were plotted against NSCLC biomarker score. Results of this experiment are shown in the scatter plot of FIG. 11A. High N-Myc expressing cell lines were enriched in the lower right quadrant of the scatterplot, indicating high NSCLC biomarker scores and high sensitivity to Compound 345.
Viability assay: Compound 345 was tested in a panel of 156 lung cancer cell lines (including non small cell lung cancer (NSCLC) and small cell lung cancer (SCLC) cell lines and 46 lymphoma cell lines using a 72 hr CellTiter Glo assay format. Cells were sub-cultured as recommended by the providers (ATCC, DSMZ) and incubated at 37° C., 5% CO2. All cells were authenticated and confirmed by Short Tandem Repeat (STR) profiling. Briefly, each lung cancer cell line was preferentially seeded in 384-well plates (100 μL/well) at a density previously determined to be in log growth phase 72 hour post-seeding (typically in the 400-2400 cells/well range). […] Cell viability was assessed using the CellTiter-Glo® 2.0 Assay as recommended by the Manufacturer (Promega, Cat. No. G7558, Lot. No. 0000385738) and measurements performed on the EnSpire multimode plate reader (Perkin Elmer). […]

[2] = test system: DOHH2 lymphoma cell line derived xenograft; test: DOHH2 lymphoma CDX efficacy study; format: in vivo, immunodeficient mice; settings: oral daily 3 mg/kg and 10 mg/kg
Protocol: Additionally, cell line derived xenograft (CDX) models were produced for lymphoma cell line (DOHH2) in immunodeficient mice. Oral dosing of Compound 345 was performed daily at doses of 3 mg/kg and 10 mg/kg as well as the CHOP combination (a well-known lymphoma treatment regimen) and a no-drug vehicle control. Tumor volumes were measured (mm^3) at regular intervals over the course of up to 30 days depending on the animal.
In vivo efficacy study: NCI-H1155, MM1 S, WSU-DLCL2, DOHH-2 cells were maintained in vitro in individual medium and conditions as recommended by the providers and incubated at 37° C. in an atmosphere of 5% CO2 in air. 0.5 million (NCI-H1155), 10 million (MM1S) or 5 million (WSU-DLCL2 and DOHH-2) cells were resuspended in typically 0.1-0.2 mL of PBS with Matrigel (50:50) and were inoculated into 6-8 weeks old BALB/c nude female (NCI-H115, WSU-DLCL2), NOD/SCID (MM1S) or CB-17SCID (DOHH-2) mice and allowed to grow to 150-200 mm3 in size. […] Tumor volumes were measured at least twice weekly during the treatment period using a caliper and the volume was expressed in mm3 using the formula: V=0.5 a×b2 where a and b were the long and short diameters of the tumor, respectively. […] Data are expressed as the mean±SEM. All data was analyzed using GraphPad Prism 8.1.2 (GraphPad).

[3] = test system: MDA-MB-468, MDA-MB-231, MDA-MB-436 and CAL51 triple negative breast cancer models; test: In vivo anti-tumor activity of compound 8 in triple negative breast cancer models; design: species or system mice; settings: i.p. 37 and 75 mpk, 21 continuous days; all four models
Protocol: Shown are representative examples of triple negative breast cancer models with high 4EBP1 marker expression levels. Tumor growth was measured in MDA-MB-468 (ATCC HTB-132) (A), MDA-MB-231 (ATCC HTB-26) (B), MDA-MB-436 (ATCC HTB-130) (C) and CAL51 (DSMZ-ACC-302) (D) as indicated. compound 8 was dosed i.p at 37 and 75 mpk for 21 continuous days and tumor size measured every three days. Vehicle (black line), compound 8 dosed daily at 37 mpk (light grey) and 75 mpk (dark grey). X-axis represents days; y-axis represents the tumor volume (mm^3).

Sequence of GSPT1 (P15170 whole entry): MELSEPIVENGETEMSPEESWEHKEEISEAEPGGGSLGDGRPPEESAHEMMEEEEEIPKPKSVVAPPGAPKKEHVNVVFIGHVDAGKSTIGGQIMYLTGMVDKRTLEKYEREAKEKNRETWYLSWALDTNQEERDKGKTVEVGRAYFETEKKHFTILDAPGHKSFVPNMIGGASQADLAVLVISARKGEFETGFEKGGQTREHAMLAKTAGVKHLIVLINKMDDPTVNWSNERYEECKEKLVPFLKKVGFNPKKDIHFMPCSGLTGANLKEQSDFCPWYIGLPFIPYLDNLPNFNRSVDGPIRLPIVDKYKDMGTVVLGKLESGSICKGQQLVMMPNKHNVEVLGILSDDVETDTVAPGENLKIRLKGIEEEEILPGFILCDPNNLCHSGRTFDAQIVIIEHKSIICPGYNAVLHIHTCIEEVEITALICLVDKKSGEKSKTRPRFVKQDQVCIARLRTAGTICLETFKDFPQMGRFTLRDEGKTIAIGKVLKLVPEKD
Sequence of GSPT1 (Q96SW2 whole entry): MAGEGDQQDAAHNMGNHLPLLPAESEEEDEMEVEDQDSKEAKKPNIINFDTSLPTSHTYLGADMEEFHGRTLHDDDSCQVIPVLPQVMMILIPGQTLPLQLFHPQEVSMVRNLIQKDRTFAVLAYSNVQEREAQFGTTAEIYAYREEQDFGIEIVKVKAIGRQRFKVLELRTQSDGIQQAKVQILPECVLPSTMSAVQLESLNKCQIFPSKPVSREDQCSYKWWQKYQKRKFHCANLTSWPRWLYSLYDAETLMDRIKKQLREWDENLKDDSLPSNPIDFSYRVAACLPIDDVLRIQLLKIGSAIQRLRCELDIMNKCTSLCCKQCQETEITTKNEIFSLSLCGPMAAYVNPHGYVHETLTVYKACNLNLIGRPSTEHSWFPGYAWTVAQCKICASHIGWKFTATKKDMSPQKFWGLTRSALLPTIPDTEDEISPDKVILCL
Sequence of GSPT1 (Q16531 whole entry partner): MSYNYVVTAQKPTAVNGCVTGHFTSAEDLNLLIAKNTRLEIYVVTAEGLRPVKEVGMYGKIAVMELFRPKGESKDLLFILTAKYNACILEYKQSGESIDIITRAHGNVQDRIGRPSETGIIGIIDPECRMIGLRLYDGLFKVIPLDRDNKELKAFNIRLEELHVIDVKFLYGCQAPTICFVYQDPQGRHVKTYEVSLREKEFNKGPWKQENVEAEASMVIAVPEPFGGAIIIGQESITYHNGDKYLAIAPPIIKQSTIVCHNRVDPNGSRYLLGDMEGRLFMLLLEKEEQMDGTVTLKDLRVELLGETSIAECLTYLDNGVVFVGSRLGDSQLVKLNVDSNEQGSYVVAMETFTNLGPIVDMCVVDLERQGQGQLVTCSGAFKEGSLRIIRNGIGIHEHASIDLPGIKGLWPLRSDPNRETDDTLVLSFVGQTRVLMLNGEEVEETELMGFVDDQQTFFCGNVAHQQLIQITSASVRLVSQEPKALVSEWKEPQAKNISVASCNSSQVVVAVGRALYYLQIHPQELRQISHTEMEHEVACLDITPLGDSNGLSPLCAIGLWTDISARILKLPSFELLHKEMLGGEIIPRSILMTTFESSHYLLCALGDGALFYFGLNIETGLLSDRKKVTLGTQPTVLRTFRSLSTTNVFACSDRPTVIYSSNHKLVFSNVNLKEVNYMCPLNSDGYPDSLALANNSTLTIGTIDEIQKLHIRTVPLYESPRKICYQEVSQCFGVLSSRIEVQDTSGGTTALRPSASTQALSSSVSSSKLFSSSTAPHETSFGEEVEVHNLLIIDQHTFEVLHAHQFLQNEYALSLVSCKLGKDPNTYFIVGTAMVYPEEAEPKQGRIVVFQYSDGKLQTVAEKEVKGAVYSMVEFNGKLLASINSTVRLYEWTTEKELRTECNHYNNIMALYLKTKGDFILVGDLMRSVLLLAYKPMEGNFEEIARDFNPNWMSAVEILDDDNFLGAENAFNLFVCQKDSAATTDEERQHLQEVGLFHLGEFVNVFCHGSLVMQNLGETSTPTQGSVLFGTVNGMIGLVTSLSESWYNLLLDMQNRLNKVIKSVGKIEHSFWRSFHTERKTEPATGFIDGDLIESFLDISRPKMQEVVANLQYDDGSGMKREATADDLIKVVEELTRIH

Cc1ccc(NC(=O)OCc2ccc3c(c2)C(=O)N(C2CCC(=O)NC2=O)C3)cc1Cl (centres unmarked) [Compound 210]
body weight ([1]; oral administration, NCI-H1155 xenograft mice): no body weight loss observed | tumor growth ([1]; oral, 1 mg/kg once daily): tumor growth was suppressed for two weeks | tumor size ([1]; oral, 3 mg/kg once daily): tumor size decreased, became undetectable by day eight | tumor size ([1]; oral, 6 mg/kg five days on and nine days off): tumor size decreased, became undetectable by day eight | GSPT1 degradation in tumors (GSPT1): complete degradation of GSPT1

O=C1CCC(N2Cc3ccc(COC(=O)Nc4cc(OC(F)(F)F)ccc4F)cc3C2=O)C(=O)N1 (centres unmarked) [Compound 345, (2-(2,6-dioxopiperidin-3-yl)-3-oxoisoindolin-5-yl)methyl(2-fluoro-5-(trifluoromethoxy)phenyl)carbamate]
cell viability in Myc-driven and non-Myc-driven NSCLC (NSCLC cell lines): cell viability was significantly reduced in only Myc-driven NSCLC | tumor volume [2]: anti-tumor activity

Cc1ccc(NC(=O)NCc2ccc3c(c2)C(=O)N(C2CCC(=O)NC2=O)C3)cc1Cl (centres unmarked) [Compound 8]
anti-tumor activity (tumor volume) [3]: robust and dose-dependent anti-tumor activity, including regressions
